# In patent US7553929B2, “Cell permeable peptides for inhibition of inflammatory reactions and methods of use” (Vanderbilt University, priority 1994, dated 2009):
# Key:
# NIH 3T3 cells [1] = test: [3H]thymidine incorporation (mitogenic response) of NIH 3T3 cells; format: cell-based; settings: serum-starved NIH 3T3 cells, 16 h + 4 h
# Method: A 26-residue hybrid peptide (referred to as SA, listed herein as SEQ ID NO:3) was designed and synthesized. […] Thus, the SA peptide differs from the SM peptide only in its 7-residue carboxyl terminal “cargo” region. A functional assay was performed in which SA peptide was able to induce a mitogenic response of NIH 3T3 cells measured by [^3H]thymidine incorporation in a manner similar to aFGF bearing, the same NLS. ^18
# In this functional assay, confluent 3T3 cells grown initially in DMEM containing 10% FBS were transferred to a low serum medium (DMEM containing 0.5% FBS) for 2 days. The test peptides, either SA peptide, SAα pep-tide, ANL peptide, or SM peptide, or aFGF, were added to a fresh low serum medium at the indicated concentrations at 37° C. After 16 hours, [^3H]thymidine was added and 4 hours later, the cells were washed with PBS, treated with trichloroacetic acid, solubilized with 0.15 M NaOH, and the radioactivity was determined in a liquid scintillation counter.
# Bars represent the mean±S.E.M. of at least three independent experiments done in triplicate and calculated as multiplicity of counts in the tested sample over the control sample. SA peptide within the concentration range used (0 to 46 μM) was not cytotoxic as determined by staining with fluorescein diacetate/ethidium bromide. ^20
# NIH 3T3 cells [2] = test: DNA synthesis by flow cytometric analysis in serum-starved NIH 3T3 cells; format: cell-based; settings: 15 ng ml^−1, 20 h
# Method: To further confirm the mitogenic activity of the SA peptide, its effect on DNA synthesis was examined. Serum-starved NIH 3T3 cells were treated with SA peptide, fixed, and the DNA concentration was determined by standard flow cytometric analysis. Specifically, confluent NIH 3T3 cells (1.3×10^6 cells) were serum-starved in DMEM containing 0.5% FBS for 2 days. The cells were untreated (control) or treated with SA peptide or aFGF for 20 h, harvested, spun down, and washed with serum-free PBS, three times. The cells were fixed with methanol precooled to −20° C. for DNA analysis carried out by the Flow Cytometry Research Service of Vanderbilt University. The data were the mean ±S.E.M. of six measurements and were analyzed for statistical significance by analysis of variance.
# NIH 3T3 cells [3] = settings: aFGF binding to FGF receptors on NIH 3T3 cells; cited from earlier work
substance,measurement,setting,value
aFGF: acidic fibroblast growth factor,Stimulation of [3H]thymidine incorporation over control,NIH 3T3 cells [1],~8 fold
same,Diploid % S Phase,NIH 3T3 cells [2],27.8 ± 2.3 (P < 0.05) %
same,Tyrosine phosphorylation of intracellular proteins,NIH 3T3 cells [3],induces the tyrosine phosphorylation
